This note sets out measurements from US7045528B2, “Benzofused heterozryl amide derivatives of thienopyridines useful as therapeutic agents, pharmaceutical compositions including the same, and methods for their use” (Agouron Pharmaceuticals, Inc., priority 2002, dated 2006).

A word on the IC50: it is the point on the concentration scale where inhibition reaches its midpoint. A word on the Ki: it is the dissociation constant of the complex between target and ligand, obtained from inhibition or displacement. The term melting point denotes the temperature, or range, at which the solid turns liquid.

The test system of one data set is Huvec. Put plainly: bFGF Huvec proliferation. The following applies: Homo sapiens, HUVEC. Format: cell-based, human.
The target of another data set is T1, KDR (VEGFR2) (Homo sapiens, UniProt P35968).
T1 construct: expressed in transfected cells; host or cells: porcine aorta endothelial (PAE)-KDR cells
Nature of the data set: KDR (VEGFR2) phosphorylation in PAE-KDR cells assay. Format: cell-based. The following applies: PAE cells overexpressing human KDR, VEGF stimulated; read-out: PAE KDR autophos IC50 (nM) AVG. How it is done:
KDR (VEGFR2) Phosphorylation in PAE-KDR Cells Assay
This assay determines the ability of a test compound to inhibit the autophosphorylation of KDR in porcine aorta endothelial (PAE)-KDR cells. PAE cells that overexpress human KDR were used in this assay. The cells were cultured in Ham's F12 media supplemented with 10% fetal bovine serum (FBS) and 400 ug/mL G418. Thirty thousands cells were seeded into each well of a 96-well plate in 75 μL of growth media and allowed to attach for 6 hours at 37° C. Cells were then exposed to the starvation media (Ham's F12 media supplemented with 0.1% FBS) for 16 hours. After the starvation period was over, 10 μL of test agent in 5% DMSO in starvation media were added to the test wells and 10 μL of the vehicle (5% DMSO in starvation media) were added into the control wells. The final DMSO concentration in each well was 0.5%. Plates were incubated at 37° C. for 1 hour and the cells were then stimulated with 500 ng/ml VEGF (commercially available from R & D System) in the presence of 2 mM Na3VO4 for 8 minutes. The cells were washed once with 1 mm Na3VO4 in HBSS and lysed by adding 50 μL per well of lysis buffer. One hundred μL of dilution buffer were then added to each well and the diluted cell lysate was transferred to a 96-well goat ant-rabbit coated plate (commercially available from Pierce) which was pre-coated with Rabbit anti Human Anti-flk-1 C-20 antibody (commercially available from Santa Cruz). The plates were incubated at room temperature for 2 hours and washed seven times with 1% Tween 20 in PBS. HRP-PY20 (commercially available from Santa Cruz) was diluted and added to the plate for a 30-minute incubation. Plates were then washed again and TMB peroxidase substrate (commercially available from Kirkegaard & Perry) was added for a 10-minute incubation. One hundred μL of 0.09 N H2SO4 was added to each well of the 96-well plates to stop the reaction. Phosphorylation status was assessed by spectrophotometer reading at 450 nm. IC50 values were calculated by curve fitting using a four-parameter analysis.

For data set [1], the target named is T2, unphosphorylated VEGF-R2Δ50 (FLVK) (Homo sapiens, UniProt P35968, DEL940-989/E990V).
T2 construct: VEGF-R2Δ50 contains residues 806–939 and 990–1171; made in house; host or cells: baculovirus/insect cell system
Nature of the data set: VEGF-R2 coupled spectrophotometric assay, unphosphorylated VEGF-R2Δ50 (FLVK). Format: biochemical. Conditions: unphosphorylated VEGF-R2Δ50; for inhibition at 0.05 µM: 50 nM compound, read-out: FLVK (% inh @ 50 nM). The method, boiled down: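 Baculovirus-expressed human VEGF-R2Δ50 (kinase insert partly deleted, E990V), unphosphorylated form; ADP production coupled via PK/LDH to NADH oxidation, read at 340 nm. 20 mM poly(E4Y1), 3 mM ATP, 60 mM MgCl2, 2 mM MnCl2, 200 mM HEPES pH 7.5; 5–40 nM enzyme. Ki from Morrison tight-binding fit.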

Data set [2] has as its system human umbilical vein endothelial cells (HUVEC). Nature of the data set: HUVEC+VEGF proliferation assay. Conditions: Homo sapiens, HUVEC; VEGF 6 ng/mL, 72 h, MTT. In kind it is cell-based. The method, boiled down: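 Exponentially growing passage 3–4 HUVEC were starved 24 h in F12K + 1% FBS, given compound (0.1% final DMSO) 1 h before 6 ng/mL final VEGF, then cultured 72 h. Proliferation was read as MTT dye reduction (4 h exposure), absorbance at 595 nm.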

The target of a further data set is T3, PDGFRβ (Homo sapiens, UniProt P09619).
T3 construct: expressed in transfected cells; host or cells: porcine aorta endothelial (PAE)-PDGFRβ cells
Nature of the data set: PAE-PDGFRβ phosphorylation in PAE-PDGFRB cells assay. In kind it is cell-based. Conditions: PAE cells overexpressing human PDGFRβ, PDGF-BB stimulated; read-out: PAE PDGFR autophos IC50 (nM) AVG. The method, boiled down:
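PAE cells overexpressing human PDGFRβ, serum-starved 16 h (0.1% FBS), were given compound for 1 h at 37 °C (0.5% DMSO) and then stimulated with 1 μg/mL PDGF-BB plus 2 mM Na3VO4 for 8 min. Receptor autophosphorylation was read by capture ELISA (HRP-PY20, TMB, 450 nm); IC50 from 4-parameter fit.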

T2 sequence (P35968 with tags, fused parts or gaps DEL940-989/E990V limits assumed): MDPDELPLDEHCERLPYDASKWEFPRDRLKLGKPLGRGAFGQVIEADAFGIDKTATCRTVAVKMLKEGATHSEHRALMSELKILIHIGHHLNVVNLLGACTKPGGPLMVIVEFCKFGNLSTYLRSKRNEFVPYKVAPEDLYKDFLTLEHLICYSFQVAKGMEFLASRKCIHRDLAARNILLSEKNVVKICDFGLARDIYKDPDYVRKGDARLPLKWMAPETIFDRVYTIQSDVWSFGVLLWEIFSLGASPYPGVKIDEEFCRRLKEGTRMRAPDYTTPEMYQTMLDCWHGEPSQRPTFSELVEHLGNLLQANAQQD
T3 sequence (P09619 33-1106): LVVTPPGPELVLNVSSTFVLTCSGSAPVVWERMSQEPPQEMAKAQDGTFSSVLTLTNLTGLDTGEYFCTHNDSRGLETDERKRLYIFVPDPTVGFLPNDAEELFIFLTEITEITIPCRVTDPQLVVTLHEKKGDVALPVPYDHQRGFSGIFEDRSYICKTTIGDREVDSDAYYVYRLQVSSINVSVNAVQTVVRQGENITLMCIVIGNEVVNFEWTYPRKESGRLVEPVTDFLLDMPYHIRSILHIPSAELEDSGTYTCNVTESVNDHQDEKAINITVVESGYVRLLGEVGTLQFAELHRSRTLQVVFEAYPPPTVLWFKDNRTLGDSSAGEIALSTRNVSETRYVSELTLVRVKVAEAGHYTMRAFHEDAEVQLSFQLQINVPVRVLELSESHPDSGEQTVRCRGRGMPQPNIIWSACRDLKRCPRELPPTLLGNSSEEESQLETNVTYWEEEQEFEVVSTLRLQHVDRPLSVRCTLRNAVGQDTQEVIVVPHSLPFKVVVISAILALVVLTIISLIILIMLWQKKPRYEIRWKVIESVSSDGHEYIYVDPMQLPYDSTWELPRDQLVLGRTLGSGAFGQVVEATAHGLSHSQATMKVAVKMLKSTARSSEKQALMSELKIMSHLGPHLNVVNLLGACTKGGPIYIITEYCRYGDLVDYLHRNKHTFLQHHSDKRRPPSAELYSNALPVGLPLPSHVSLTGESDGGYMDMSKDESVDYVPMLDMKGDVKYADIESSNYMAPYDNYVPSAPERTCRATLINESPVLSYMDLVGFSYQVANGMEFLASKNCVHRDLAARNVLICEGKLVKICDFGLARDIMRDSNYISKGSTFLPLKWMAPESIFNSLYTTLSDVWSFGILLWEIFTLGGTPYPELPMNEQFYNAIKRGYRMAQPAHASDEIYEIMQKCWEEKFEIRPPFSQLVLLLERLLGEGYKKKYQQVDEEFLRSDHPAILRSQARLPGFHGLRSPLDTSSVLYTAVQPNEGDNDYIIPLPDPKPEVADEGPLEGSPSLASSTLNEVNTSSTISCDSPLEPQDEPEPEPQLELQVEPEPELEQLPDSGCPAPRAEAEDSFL
T1 sequence (P35968 20-1356): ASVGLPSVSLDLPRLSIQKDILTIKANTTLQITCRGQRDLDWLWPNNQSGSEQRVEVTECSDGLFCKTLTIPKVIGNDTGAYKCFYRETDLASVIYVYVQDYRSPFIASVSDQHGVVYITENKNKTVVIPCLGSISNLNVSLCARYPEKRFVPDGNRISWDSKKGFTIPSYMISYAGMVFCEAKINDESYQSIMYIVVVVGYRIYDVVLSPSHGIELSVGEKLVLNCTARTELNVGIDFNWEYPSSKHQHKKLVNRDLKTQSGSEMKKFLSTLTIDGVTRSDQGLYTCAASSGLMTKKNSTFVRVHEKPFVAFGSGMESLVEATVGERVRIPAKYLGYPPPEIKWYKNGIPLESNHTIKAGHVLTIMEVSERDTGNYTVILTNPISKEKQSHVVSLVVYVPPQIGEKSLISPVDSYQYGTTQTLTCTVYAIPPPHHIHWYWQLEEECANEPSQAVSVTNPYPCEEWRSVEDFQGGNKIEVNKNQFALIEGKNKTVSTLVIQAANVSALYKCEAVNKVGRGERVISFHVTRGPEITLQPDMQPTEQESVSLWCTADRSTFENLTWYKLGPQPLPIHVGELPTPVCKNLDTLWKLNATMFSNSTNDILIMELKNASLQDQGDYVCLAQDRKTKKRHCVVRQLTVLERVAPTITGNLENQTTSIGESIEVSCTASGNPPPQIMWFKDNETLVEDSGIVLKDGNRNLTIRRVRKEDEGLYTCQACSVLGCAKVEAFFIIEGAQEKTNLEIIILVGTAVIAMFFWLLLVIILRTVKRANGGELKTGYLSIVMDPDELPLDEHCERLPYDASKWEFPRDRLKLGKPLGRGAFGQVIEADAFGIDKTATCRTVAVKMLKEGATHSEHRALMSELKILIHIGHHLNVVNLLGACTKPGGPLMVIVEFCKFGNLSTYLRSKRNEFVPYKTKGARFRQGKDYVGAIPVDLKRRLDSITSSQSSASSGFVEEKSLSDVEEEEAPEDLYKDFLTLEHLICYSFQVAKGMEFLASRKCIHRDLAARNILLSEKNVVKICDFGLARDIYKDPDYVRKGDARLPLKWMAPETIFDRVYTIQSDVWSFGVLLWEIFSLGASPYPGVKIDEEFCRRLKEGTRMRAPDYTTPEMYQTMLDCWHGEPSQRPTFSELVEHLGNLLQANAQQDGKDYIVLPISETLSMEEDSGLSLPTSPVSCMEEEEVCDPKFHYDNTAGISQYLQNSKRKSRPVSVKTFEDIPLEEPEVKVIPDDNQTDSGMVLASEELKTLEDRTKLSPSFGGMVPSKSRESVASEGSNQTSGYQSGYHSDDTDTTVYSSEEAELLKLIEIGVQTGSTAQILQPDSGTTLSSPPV

Consider `CNC(=O)c1c(C)sc2cc(Oc3ccnc4cc(C(=O)N5C[C@@H](O)[C@@H](O)C5)sc34)ccc12` [Example 7, 6-(2-[meso-3,4-dihydroxypyrrolidine-1-carbonyl]thieno[3,2-b]pyridin-7-yloxy)-2-methylbenzo[b]thiophene-3-carboxylic acid methylamide], for which the IC50 with Huvec was determined as 2470 nM; at KDR (VEGFR2), 1.95 nM; in data set [2], 1.21 nM. The inhibition at 0.05 µM in data set [1] stood at 95%. The compound further gave a Ki in data set [1] of 1.04 nM.

In the case of `CNC(=O)c1c(C)sc2cc(Oc3ccnc4cc(C(=O)N5CC(O)C5)sc34)ccc12` [Example 9, 6-(2-[3-Hydroxyazetidine-1-carbonyl]thieno[3,2-b]pyridin-7-yloxy)-2-methylbenzo[b]thiophene-3-carboxylic acid methylamide], the melting point lay in the range of 237 to 239 °C. The IC50 with Huvec is 135 nM. Also, the IC50 on PDGFRβ is 313 nM. In addition, in data set [1], the inhibition at 0.05 µM was 83% and the Ki turned out to be 1.57 nM. For the same compound, the IC50 in data set [2] came out at 13 nM.

Take `CNC(=O)c1c(C)sc2cc(Oc3ccnc4cc(-c5ccnn5C)sc34)ccc12` [Example 10, 2-Methyl-6-(2-[2-methyl-2H-pyrazol-3-yl]thieno[3,2-b]pyridin-7-yloxy)benzo[b]thiophene-3-carboxylic acid methylamide]: the melting point was 210 to 212 °C. In the data set with Huvec, this compound returned an IC50 of 99 nM. Moreover, the IC50 on PDGFRβ turned out to be 451 nM. In data set [1], the inhibition at 0.05 µM is 74% and the Ki was found to be 2.31 nM. The IC50 in data set [2] stood at 10 nM.

For the compound `Cc1c(C(=O)NCC2CC2)c2ccc(Oc3ccnc4cc(-c5nc(C(C)(C)O)cs5)sc34)cc2n1C` [Example 57, 6-{2-[4(1-Hydroxy-1-methyl-ethyl)-thiazol-2-yl]-thieno[3,2-b]pyridin-7-yloxy)-1,2-dimethyl-1H-indole-3-carboxylic acid cyclopropylmethyl-amide], on KDR (VEGFR2), the IC50 was determined as 87 nM. In addition, in data set [1], the inhibition at 0.05 µM turned out to be 63% and the Ki stood at 9.8 nM.
